Measured values as given in patent US20140121107A1, “HERBICIDAL COMPOSITIONS FOR TOLERANT OR RESISTANT RICE CROPS” (Bayer Intellectual Property GmbH, priority 1998, published 2014).
Counter-ions that a name gives are not always drawn.

What was measured:
Assay type in all cases: in vivo
[1] = tested on: Cyperus difformis; experiment: Herbicidal effect in rice weeds (field trial, Table 10); details: 15 g A.S./ha; application in the 7-leaf stage; scoring 36 days after application
Experimental: (§1) Transgenic rice plants with a resistance to one or more herbicides (A) together with typical weed plants were grown in the open on 2×5 m plots under natural field conditions; alternatively, weed infestation occurred naturally when the rice plants were grown. Fields were set up for field rice or alternatively also for paddy rice.
The damage to, and the development of, all aerial parts of the plants was recorded.

[2] = tested on: Echinochloa crus-galli; experiment: Herbicidal effect in rice weeds (field trial, Table 11); details: application in the 4-leaf stage, scoring 26 days after application
Experimental: as §1
(§2) 2, 4, 6 and 8 weeks after the application, the herbicidal activity of the active substances or active substance mixtures was scored visually with reference to the treated plots in comparison to untreated control plots. The damage to, and the development of, all aerial parts of the plants was recorded. Scoring was done on the basis of a percentage sale (100% action=all plants destroyed; 50% action=50% of the plants and green parts of the plants destroyed; 0% action=no recognizable effect=like control plot. The mean of the score values of in each case 4 plots was calculated.

[3] = tested on: Cyperus iria; experiment: Herbicidal effect in rice weeds (field trial, Table 6); details: application in the 3-leaf stage, scoring 42 days after application
Experimental: as §1, §2

[4] = tested on: Cyperus difformis; experiment: Herbicidal effect in rice weeds (field trial, Table 5); details: application in the 3-leaf stage, scoring 36 days after application
Experimental: as §1
(§3) […] The damage to, and the development of, all aerial parts of the plants was recorded. Scoring was done on the basis of a percentage sale (100% action=all plants destroyed; 50% action=50% of the plants and green parts of the plants destroyed; 0% action=no recognizable effect=like control plot. The mean of the score values of in each case 4 plots was calculated.

[5] = tested on: Echinochloa crus galli; experiment: Herbicidal effect in rice weeds (field trial, Table 9); details: application in the 5-6-leaf stage, scoring 36 days after application
Experimental: as §1, §3

[6] = tested on: Echinochloa crus-galli; experiment: Herbicidal effect in rice broad-leaved weeds (Table 2); details: application in the 3-4-leaf stage, scoring 2 weeks after application
Experimental: as §1, §2

[7] = tested on: Ipomoea sp.; experiment: Herbicidal effect in rice weeds (Table 3); details: application in the 4-leaf stage, scoring 2 weeks after application
Experimental: as §1, §2

[8] = tested on: Echinochloa crus galli; experiment: Herbicidal effect in rice weeds (field trial, Table 4); details: application in the 4-leaf stage, scoring 42 days after application
Experimental: as §1, §2

[9] = tested on: Echinochloa crus galli; experiment: Herbicidal effect in rice weeds (field trial, Table 7); details: application in the 3-leaf stage, scoring 42 days after application
Experimental: as §1, §2

[10] = tested on: Aeschynomene rudis; experiment: Herbicidal effect in rice weeds (field trial, Table 8); details: application in the 3-leaf stage, scoring 28 days after application
Experimental: as §1, §2

Compound: CCOc1ccccc1OS(=O)(=O)NC(=O)Nc1nc(OC)cc(OC)n1 [(B2.4), 1-(4,6-dimethoxypyrimidin-2-yl)-3-(2-ethoxyphenoxysutfonyl)urea]
- Herbicidal action (%) against Cyperus difformis [1]: 40%

Compound: CCCC(=NOCC(C)Oc1ccc(Cl)cc1)C1=C(O)CC(C2CCCSC2)CC1=O (centres unmarked) [(B4.4)]
- Herbicidal action (%) against Echinochloa crus-galli ([2]; 37.5 g A.S./ha): 50%
- Herbicidal action (%) against Echinochloa crus-galli ([2]; 75 g A.S./ha): 83%

Compound: CC(C)Oc1cc(-n2nc(C(C)(C)C)oc2=O)c(Cl)cc1Cl [(B1.21)]
- Herbicidal action (%) against Cyperus iria ([3]; 250 g A.S./ha): 37%

Compound: Cc1nn(-c2cc(CC(Cl)C(=O)O)c(Cl)cc2F)c(=O)n1C(F)F (racemic) [(B2.13), (RS)-2-chloro-3-[2-chloro-5-(4-difluoromethyl-4,5-dihydro-3-methyl-5-oxo-1H-1,2,4-triazol-1-yl)-4-fluorophenyl]propionic acid]
- Herbicidal action (%) against Cyperus difformis ([4]; 50 g A.S./ha): 28%

Compound: CCc1cnc(C2=NC(C)(C(C)C)C(=O)N2)c(C(=O)O)c1 (centres unmarked) [(A3.2), imazethapyr]
- Herbicidal action (%) against Echinochloa crus galli ([5]; 75 g A.S./ha): 67%

Compound: CCC(CC)Nc1c([N+](=O)[O-])cc(C)c(C)c1[N+](=O)[O-] [(B1.5), N-(1-ethylpropyl)-2,6-dinitro-3,4-xylidine]
- Herbicidal action (%) against Cyperus iria ([3]; 1000 g A.S./ha): 33%

Compound: COc1cc(OC)nc(NC(=O)NS(=O)(=O)c2c(C(=O)O)cnn2C)n1 [(B2.8), 5-(4,6-dimethoxypyrimidin-2-ylcarbamoylsulfamoyl)-1-methylpyrazole-4-carboxylic acid]
- Herbicidal action (%) against Cyperus difformis ([4]; 15 g A.S./ha): 65%

Compound: CP(=O)(O)CCC(N)C(=O)O (centres unmarked) [(A1.2), glufosinate-monoammonium salt]
- Herbicidal action (%) against Echinochloa crus-galli ([6]; 400 g A.S./ha): 93%
- Herbicidal action (%) against Ipomoea sp. ([7]; 400 g A.S./ha): 93%
- Herbicidal action (%) against Echinochloa crus galli ([8]; 250 g A.S./ha): 63%
- Herbicidal action (%) against Echinochloa crus galli ([8]; 500 g A.S./ha): 87%
- Herbicidal action (%) against Cyperus difformis ([4]; 400 g A.S./ha): 18%
- Herbicidal action (%) against Cyperus difformis ([4]; 500 g A.S./ha): 40%
- Herbicidal action (%) against Cyperus iria ([3]; 400 g A.S./ha): 35%
- Herbicidal action (%) against Echinochloa crus galli ([9]; 400 g A.S./ha): 65%
- Herbicidal action (%) against Aeschynomene rudis ([10]; 250 g A.S./ha): 65%
- Herbicidal action (%) against Aeschynomene rudis ([10]; 500 g A.S./ha): 83%
- Herbicidal action (%) against Echinochloa crus galli ([5]; 500 g A.S./ha): 18%
- Herbicidal action (%) against Echinochloa crus-galli ([2]; 250 g A.S./ha): 35%
- Herbicidal action (%) against Echinochloa crus-galli ([2]; 500 g A.S./ha): 75%

Compound: COc1nc(C)nc(NC(=O)NS(=O)(=O)c2ccccc2C(=O)O)n1 [(B2.5), 2-[[[[(4-methoxy-6-methyl-1,3,5-triazin-2-yl)amino]carbonyl]amino]sulfonyl]benzoic acid]
- Herbicidal action (%) against Cyperus iria ([3]; 1 g A.S./ha): 35%

Compound: CCSC(=O)N1CCCCCC1 [(B1.1), S-ethyl azepane-1-thiocarboxylate]
- Herbicidal action (%) against Echinochloa crus galli ([5]; 4480 g A.S./ha): 0%

Compound: CCN(CC)C(=O)SCc1ccc(Cl)cc1 [(B1.2), S-4-chlorobenzyl diethylthiocarbamate]
- Herbicidal action (%) against Cyperus iria ([3]; 1500 g A.S./ha): 57%

Compound: CCC(=O)Nc1ccc(Cl)c(Cl)c1 [(B1.4), N-(3,4-dichlorophenyl)-propanamide]
- Herbicidal action (%) against Ipomoea sp. ([7]; 3360 g A.S./ha): 90%

Compound: COC(=O)c1ccccc1CS(=O)(=O)NC(=O)Nc1nc(OC)cc(OC)n1 [(B2.3), methyl 2-[[[[[(4,6-dimethoxy-2-pyrimidinyl)amino]carbonyl]-amino]sulfonyl]methyl]benzoate]
- Herbicidal action (%) against Echinochloa crus-galli ([6]; 45 g A.S./ha): 0%
- Herbicidal action (%) against Cyperus difformis ([4]; 35 g A.S./ha): 55%
- Herbicidal action (%) against Cyperus difformis ([4]; 70 g A.S./ha): 87%

Compound: O=C(O)c1c(Cl)ccc2cc(Cl)cnc12 [(B1.3), 3,7-dichloroquinoline-8-carboxylic acid]
- Herbicidal action (%) against Echinochloa crus galli ([9]; 560 g A.S./ha): 25%

Compound: O=C(O)COc1ccc(Cl)cc1Cl [(B2.1), (2,4-dichlorophenoxy)acetic acid]
- Herbicidal action (%) against Cyperus iria ([3]; 500 g A.S./ha): 62%

Compound: CC1(C)CON(Cc2ccccc2Cl)C1=O [(B1.12), 2-(2-chlorobenzyl)-4,4-dimethyl-1,2-oxazolidin-3-one]
- Herbicidal action (%) against Echinochloa crus galli ([8]; 400 g A.S./ha): 7%

Compound: CCS(=O)(=O)Oc1ccc2c(c1)C(C)(C)CO2 [(B2.15), 2,3-dihydro-3,3-dimethylbenzofuran-5-yl ethanesulfonate]
- Herbicidal action (%) against Cyperus difformis ([4]; 200 g A.S./ha): 35%
